Source: patent EP0859230A1, “Detection of analytes using electrochemistry” (priority 1997, dated 1998)

Key:
[1] = tested on: PBP (penicillin binding protein); assay: Competitive inhibition assay: penicillin vs 7-ACA-GOD on PBP-coated nitrocellulose strips, amperometric detection in flow cell; settings: CV in percent in brackets; for Velocity (nA sec^1) Mean: over 200 sec; for Absolute response (µA) Mean (CV): over 500 sec
Method: Strips of nitrocellulose membrane were cut to the exact size of 0.4 x 0.9 cm. Strips were soaked in a solution of 5 mg/ml PBP (penicillin binding protein) in buffer (0.1M phosphate buffered saline (PBS), pH 7.4). The strips were left to soak for 1 hour at ambient temperature.
After incubation, strips were blocked in a 2% w/v bovine serum albumin (BSA) solution in PBS buffer (pH 7.4) for 1 hour at ambient temperature.
Individual strips were removed from the blocking solution and incubated for 5 minutes at 64°C in a 1:2000 dilution of 7-ACA-GOD stock solution in whole milk with or without free analyte (penicillin G) present.
Strips were washed for 20 seconds in PBS and placed onto the working electrode of the screen-printed sensor card.
The card was mounted into the flow cell or flowing liquid system and a 0.1M PBS solution was introduced, pumped at a constant rate through the flow cell. The working electrode was poised at a potential of +350 mV and the system allowed to achieve electrochemical equilibrium. A 0.1M glucose solution in 0.1M PBS/0.1M KCl was then pumped into the system. The flow was halted after 60 seconds. The electrochemical response of the system was monitored throughout this period.
Results can be expressed as total current increase in µA over a given time interval or can be interpreted as current increase per unit time (µA/sec).
Nitro-cellulose strips were prepared in two separate batches. […] Responses are also recorded as 'velocities' whereby the maximum current versus time slope is measured during the period of glucose flow across the working electrode surface (expressed as nA/sec). Results are also expressed as a percentage of the signal of the zero ppb penicillin positive control, that is, the zero inhibited response that therefore yields a 100% response value.

[2] = tested on: Antigentamycin; assay: End-point competitive microtiter plate assay with gentamycin-GOD, hydrogen peroxide peak measured in flow cell; type: binding; settings: gentamycin concentrations as low as 5 ppb; 1:10 000 dilution of gentamycin-GOD conjugate
Method: The immunological reaction step is performed in a microtiter plate. Using GOD as the enzyme label, the final microtiter well solution will contain hydrogen peroxide, the amount of which is inversely proportional to the amount of free gentamycin present in the sample under uniform conditions (competitive assay approach). This solution is pumped through the flow cell yielding a current peak, the magnitude of which is directly proportional to the amount of hydrogen peroxide present. Since no enzyme label is present in the final solution, no further hydrogen peroxide generation occurs after removal of solution from the microtiter well, thus current peaks, as opposed to current steps are observed on liquid passage through the flow cell.
Microtiter plates were coated in carbonate/bicarbonate buffer pH 9.6 for 1 hour at 37°C, then washed and blocked with 0.5% w/v gelatin in PBS buffer pH 7.4. Plates were either used directly or stored at 4°C until required.
Primary incubations with gentamycin-GOD, with or without free gentamycin, and in milk or buffer (PBS pH 7.4) were performed for 1 hour at 37°C. Gentamycin-GOD concentrations were varied between 1:1000 and 1:20 000. […]
After a given time period for substrate conversion, 150 µl of solution was pumped through the flow cell using a peristaltic pump set at a constant flow rate of 300 µl/min. Responses were measured as peak heights in nA or mA. […]

[3] = tested on: monoclonal anti-gentamycin antibody; assay: Competitive flow-cell electrochemical immunoassay: free gentamycin vs gentamycin-GOD conjugate in milk; type: binding
Method: Strips of nitrocellulose were cut to the exact size of 0.4 x 0.9 cm. Strips were soaked in a solution of 5 µg/ml of monoclonal anti-gentamycin antibody in PBS buffer pH 7.4, for 1 hour at ambient temperature.
After incubation, strips were blocked in a 2% w/v BSA solution in PBS(pH 7.4) for 1 hour at ambient temperature.
Individual strips were removed from the blocking solution and mounted onto the working electrode surface, thus creating a complete sensor card.
Sensor cards were mounted into the flow cell, the strip of nitrocellulose being held in place by a rubber seal, used to prevent leakage during operation of the flow cell device.
One ml samples of milk were aliquoted, to which were added 25 µl of a: 1:1000 (A), 1:2000 (B) or 1:2500 (C) dilution of gentamycin-GOD conjugate (prepared with state of the art procedures).
Free gentamycin was then added to each milk sample, yielding solutions having gentamycin concentrations varying between 0 and 1000 ppb.
A pumping device was connected to the flow cell and the prepared milk samples were each tested with a new sensor card mounted in place.
The flow rate through the system was adjusted so that the complete milk sample passed through the system over a 3 minute time period. A 1 minute wash step was then performed with 0.1 % w/v Tween in 0.1M PBS (pH 7.4). Immediately after each wash step, 0.5M glucose in 0.1M PBS/ 0.1M KCl was passed through the flow cell and the electrochemical responses generated were recorded both as absolute values and as initial response-time velocities in nA/sec.
A 1:10 dilution of the MoAb stock solution was used to coat the nitro-cellulose strips. Gentamycin-glucose oxidase conjugate concentrations were varied from 1:4000 (exp.A) to 1:8000 (exp.B) to 1:10 000 (exp. C).

[4] = Batch 1, penicillin 100 ppb in whole milk, n=2
[5] = Batch 2, penicillin 10 ppb in whole milk, n=3
[6] = Batch 2, penicillin 100 ppb in whole milk, n=2
[7] = Overall, penicillin 100 ppb in whole milk, n=4
[8] = Exp. A (conjugate 1:4000), gentamycin 10 ppb in milk, duplicate
[9] = Exp. A (conjugate 1:4000), gentamycin 100 ppb in milk, duplicate
[10] = Exp. A (conjugate 1:4000), gentamycin 1000 ppb in milk, duplicate
[11] = Exp. B (conjugate 1:8000), gentamycin 10 ppb in milk, duplicate
[12] = Exp. B (conjugate 1:8000), gentamycin 100 ppb in milk, duplicate
[13] = Exp. C (conjugate 1:10 000), gentamycin 10 ppb in milk, triplicate
[14] = Exp. C (conjugate 1:10 000), gentamycin 100 ppb in milk, triplicate

CC1(C)S[C@@H]2[C@H](NC(=O)Cc3ccccc3)C(=O)N2[C@H]1C(=O)O [Penicillin, penicillin G]
Velocity (nA sec^1) Mean [1, 4]: 0.209 (12.6) nA sec^1
Absolute response (µA) Mean (CV) [1, 4]: 0.087 (35.8) µA
Velocity (nA sec^1) Mean [1, 5]: 0.151 (32.0) nA sec^1
Absolute response (µA) Mean (CV) [1, 5]: 0.064 (17.7) µA
Velocity (nA sec^1) Mean [1, 6]: 0.062 (5.7) nA sec^1
Absolute response (µA) Mean (CV) [1, 6]: 0.026 (21.8) µA
Absolute response (µA) Mean (CV) ([1]; Overall (batch 1 + batch 2), penicillin 10 ppb in whole milk, n=3): 0.064 (17.7) µA
Velocity (nA sec^1) Mean ([1]; Overall, penicillin 10 ppb in whole milk, n=3): 0.151 (32.0) nA sec^1
Velocity (nA sec^1) Mean [1, 7]: 0.135 (64.9) nA sec^1
Absolute response (µA) Mean (CV) [1, 7]: 0.057 (70.2) µA

gentamycin
inhibition of the positive signal [2]: Considerable inhibition
Absolute response (µA) Mean value [3, 8]: 3217 µA
Velocity (nA sec^1) Mean value [3, 8]: 36.0 nA sec^1
Absolute response (µA) Mean value [3, 9]: 3050 µA
Velocity (nA sec^1) Mean value [3, 9]: 22.7 nA sec^1
Absolute response (µA) Mean value [3, 10]: 1350 µA
Velocity (nA sec^1) Mean value [3, 10]: 8.7 nA sec^1
Absolute response (µA) Mean value [3, 11]: 2438 µA
Velocity (nA sec^1) Mean value [3, 11]: 18.0 nA sec^1
Absolute response (µA) Mean value [3, 12]: 2025 µA
Velocity (nA sec^1) Mean value [3, 12]: 14.3 nA sec^1
Absolute response (µA) Mean value [3, 13]: 1868 µA
Velocity (nA sec^1) Mean value [3, 13]: 10.8 nA sec^1
Absolute response (µA) Mean value [3, 14]: 1333 µA
Velocity (nA sec^1) Mean value [3, 14]: 6.0 nA sec^1
